Measured values: the supplement of paper PMC10307832

How the values were obtained:
Experiment in all cases: relative viability (nuclei count vs DMSO), 5 days (fraction); higher = more cells survive
[1] = compound: CN(c1ncccc1CNc1nc(Nc2ccc3c(c2)CC(=O)N3)ncc1C(F)(F)F)S(C)(=O)=O + COc1cccc2cc(-c3nc([C@H]4CC[C@H](C(=O)O)CC4)n4ncnc(N)c34)[nH]c12 [OSI-027] (partner 0.5 µM)
How it was run: (§1)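 Medians of duplicate plates are given as relative viability. That measure is the nuclei count in treated wells divided by the count in vehicle wells. Counts were taken on 4× images of lung cancer cell lines in 1536-well plates, 5 days after pin-tool dosing the day after seeding with one drug alone or a fixed anchor-drug dose plus five library-drug doses (not always all listed) in √10 steps.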

[2] = compound: CN(c1ncccc1CNc1nc(Nc2ccc3c(c2)CC(=O)N3)ncc1C(F)(F)F)S(C)(=O)=O + CS(=O)(=O)CCNCc1ccc(-c2ccc3ncnc(Nc4ccc(OCc5cccc(F)c5)c(Cl)c4)c3c2)o1 [Lapatinib] (partner 2 µM)
How it was run: as §1

[3] = compound: CN(c1ncccc1CNc1nc(Nc2ccc3c(c2)CC(=O)N3)ncc1C(F)(F)F)S(C)(=O)=O + C[C@]1(O)C[C@@H](c2nc(-c3ccc4ccc(-c5ccccc5)nc4c3)c3c(N)nccn32)C1 [Linsitinib] (partner 1 µM)
How it was run: as §1

[4] = compound: CN(c1ncccc1CNc1nc(Nc2ccc3c(c2)CC(=O)N3)ncc1C(F)(F)F)S(C)(=O)=O + Cc1nc(NC(=O)N2CCC[C@H]2C(N)=O)sc1-c1ccnc(C(C)(C)C(F)(F)F)c1 [Alpelisib] (partner 2 µM)
How it was run: as §1

Cell Line	relative viability ([1]; first compound 0.01 µM)	relative viability ([1]; first compound 0.03162 µM)	relative viability ([1]; first compound 0.1 µM)	relative viability ([1]; first compound 0.3162 µM)	relative viability ([1]; first compound 1 µM)	relative viability ([2]; first compound 0.01 µM)	relative viability ([2]; first compound 0.03162 µM)	relative viability ([2]; first compound 0.1 µM)	relative viability ([2]; first compound 0.3162 µM)	relative viability ([2]; first compound 1 µM)	relative viability ([3]; first compound 0.01 µM)	relative viability ([3]; first compound 0.03162 µM)	relative viability ([3]; first compound 0.1 µM)	relative viability ([3]; first compound 0.3162 µM)	relative viability ([3]; first compound 1 µM)	relative viability ([4]; first compound 0.01 µM)	relative viability ([4]; first compound 0.03162 µM)	relative viability ([4]; first compound 0.1 µM)	relative viability ([4]; first compound 0.3162 µM)	relative viability ([4]; first compound 1 µM)
NCI-H23	0.735	0.55	0.625	0.769	0.547	1.26	1.25	1.11	1.21	0.987	0.598	0.695	0.549	0.678	0.723	0.668	0.84	0.727	0.692	0.56
NCI-H322M	0.562	0.598	0.537	0.599	0.623	0.585	0.675		0.596	0.653	1.02	1.08		1.1	1.16	0.821	0.79		0.902	0.96
NCI-H358	0.791	0.822	0.849	0.815	0.752	0.449	0.414	0.42	0.431	0.397	0.739	0.727	0.626	0.705	0.666	1.03	0.824	0.737	0.753	0.669
NCI-H460	0.666	0.964	0.691	0.705	0.665	1.11	1.65	0.963	0.964	1.02	0.79	1.17	0.785	0.628	0.788	0.519	0.577	0.487	0.443	0.508
NCI-H520	0.339	0.331	0.244	0.321	0.344	0.917	1.02	0.845	0.838	1.04	1.03	0.941	1	1.03	0.842	0.985	0.894	0.829	0.96	1
NCI-H596	0.698	0.799	0.664	0.731	0.669	1.05	1.16	0.929	0.979	1.06	1	1.12	1.02	1.05	0.896	0.58	0.48	0.482	0.48	0.392
NCI-H647	0.656	0.76	0.683	0.62	0.592	1.19	1.3	1.11	1.04	1.03	1.1	1.4	1.13	0.95	1.1	1.09	0.919	1.14	1.02	1.17
NCI-H650	0.401	0.555	0.408	0.455	0.465	0.977	0.971	0.813	0.703	0.992	0.948	0.696	0.644	0.764	0.76	1.01	1.23	0.945	0.832	0.725
NCI-H661	0.69	0.668	0.641	0.774	0.784	0.481	0.496	0.652	0.534	0.637	0.657	0.722	0.563	0.679	0.637	0.817	0.695	0.546	0.85	0.5
NCI-H727	0.782	0.75	0.649	0.59	0.537	0.813	1.09	0.549	0.85	0.676	0.317	0.305	0.352	0.273	0.21	0.638	0.606	0.565	0.448	0.444
NCI-H838	0.492	0.413	0.396	0.394	0.413	0.958	1.23	0.981	0.753	0.638	0.981	1.07	1.02	0.83	0.745	0.961	1.17	1.01	0.862	0.705
NCI-H1355	0.481	0.428	0.377	0.412	0.396	1.03	1.04	0.985	0.919	0.873	0.776	0.943	0.846	0.78	0.679	0.882	0.945	0.797	0.801	0.696
NCI-H1395	0.657	0.606	0.671	0.738	0.721	0.934	0.974	0.998	1.23	1.19	0.939	1.12	0.981	1.1	1.2	0.996	1.08	0.997	1.06	1.06
NCI-H1437	0.96	0.929	0.917	0.876	0.773	0.876	0.944	0.813	0.722	0.725	0.988	1.08	1.08	0.978	0.951	0.973	1.13	1.05	0.941	0.788
NCI-H1563	0.78	0.79	0.771	0.788	0.753	0.906	0.839	0.857	0.942	1.07	1.16	1.23	1.31	1.07	1.06	0.867	1.03	0.897	0.917	0.933
NCI-H1651	0.802	0.794	0.738	0.796	0.739	0.82	1.02	0.9	0.731	0.784	0.996	0.999	1.25	0.994	0.993	0.992	1	0.873	0.899	0.916
